# From patent publication US20230257354A1, “NOVEL HETEROCYCLIC COMPOUNDS” (Hoffmann-La Roche Inc., priority 2020, published 2023)
# Where a name gives a salt, the structure may show the parent alone.
# System: Acinetobacter baumannii ATCC17978
# Assay: Antimicrobial susceptibility testing, 90% growth inhibitory concentration (IC90) determination, ATCC17978
# Assay type: cell-based
# Conditions: Iso-Sensitest broth, OD 600 nm over 16 h, 35±2° C., read-out: ATCC 17978 IC90
# Summary of the method: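 Serial twofold dilutions (e.g. 50 to 0.097 μM final) in Iso-Sensitest broth, inoculum ~5×10^(5) CFU/ml, incubated 35±2 °C for 16 h. OD600 read every 20 min; growth inhibition calculated during logarithmic growth to derive the concentration inhibiting 90% of growth, in μM.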
row,Structure (SMILES),IC90 [nM]
1,"COc1ccc(-c2cnc(C(=O)Nc3ccc(C(=O)NCC4CN(C(=O)CN)C4)c(Cl)c3)n2C)c(F)c1F [Example B18, N-[4-[[1-(2-aminoacetyl)azetidin-3-yl]methylcarbamoyl]-3-chloro-phenyl]-5-(2,3-difluoro-4-methoxy-phenyl)-1-methyl-imidazole-2-carboxamide;formic acid]",240
2,"CC[C@]1(O)CN[C@@H](C(=O)NCCNC(=O)c2ccc(NC(=O)c3ncc(-c4ccc(OCC#N)c(F)c4F)n3C)cc2C)C1 [Example B25, 5-[4-(cyanomethoxy)-2,3-difluoro-phenyl]-N-[4-[2-[[(2R,4R)-4-ethyl-4-hydroxy-pyrrolidine-2-carbonyl]amino]ethylcarbamoyl]-3-methyl-phenyl]-1-methyl-imidazole-2-carboxamide;formic acid]",870
3,"COc1ccc(-c2cnc(C(=O)Nc3ccc(C(=O)NC4CCNCC4)c(Cl)c3)n2C)c(F)c1F [Example A4, N-[3-chloro-4-(4-piperidylcarbamoyl)phenyl]-5-(2,3-difluoro-4-methoxy-phenyl)-1-methyl-imidazole-2-carboxamide;formic acid]",440
4,"COc1ccc(-c2cnc(C(=O)Nc3ccc(C(=O)NC4CCN(C(=O)CCOCCN)CC4)c(Cl)c3)n2C)c(F)c1F [Example B8, N-[4-[[1-[3-(2-aminoethoxy)propanoyl]-4-piperidyl]carbamoyl]-3-chloro-phenyl]-5-(2,3-difluoro-4-methoxy-phenyl)-1-methyl-imidazole-2-carboxamide;formic acid]",140
5,"COc1ccc(-c2cnc(C(=O)Nc3ccc(C(=O)NCCN4CCC(O)C4)c(Cl)c3)n2C)c(F)c1F (centres unmarked) [Example A28, N-[3-chloro-4-[2-(3-hydroxypyrrolidin-1-yl)ethylcarbamoyl]phenyl]-5-(2,3-difluoro-4-methoxy-phenyl)-1-methyl-imidazole-2-carboxamide]",1200
6,"CCc1cc(NC(=O)c2ncc(-c3ccc(OC(F)F)c(F)c3F)n2C)ccc1C(=O)NCCCNC(=O)C1CCN(CC2CNC2)CC1 [Example C3, 1-(azetidin-3-ylmethyl)-N-[3-[[4-[[5-[4-(difluoromethoxy)-2,3-difluoro-phenyl]-1-methyl-imidazole-2-carbonyl]amino]-2-ethyl-benzoyl]amino]propyl]piperidine-4-carboxamide;formic acid]",450

# The next lines start with the values.
row,IC90 [nM],Structure (SMILES)
1,210,"COc1ccc(-c2cnc(C(=O)Nc3ccc(C(=O)N[C@H]4C[C@@H](C(=O)N5CC(N)C5)C4)c(Cl)c3)n2C)c(F)c1F [Example B20, N-[4-[[3-(3-aminoazetidine-1-carbonyl)cyclobutyl]carbamoyl]-3-chloro-phenyl]-5-(2,3-difluoro-4-methoxy-phenyl)-1-methyl-imidazole-2-carboxamide;formic acid]"
2,1400,"Cn1c(-c2ccc(OC(F)F)c(F)c2F)cnc1C(=O)Nc1ccc(C(=O)NCCCN)c(Cl)c1 [Example A19, N-[4-(3-Aminopropylcarbamoyl)-3-chloro-phenyl]-5-[4-(difluoromethoxy)-2,3-difluoro-phenyl]-1-methyl-imidazole-2-carboxamide]"
3,4700,"CCc1cc(NC(=O)c2ncc(-c3ccc(OCC(N)=O)c(F)c3F)n2C)ccc1C(=O)NCCOCCN [Example A21, N-[4-[2-(2-aminoethoxy)ethylcarbamoyl]-3-ethyl-phenyl]-5-[4-(2-amino-2-oxo-ethoxy)-2,3-difluoro-phenyl]-1-methyl-imidazole-2-carboxamide;hydrochloride]"

# System: Acinetobacter baumannii ATCC17961
# Assay: Antimicrobial susceptibility testing, 90% growth inhibitory concentration (IC90) determination, ATCC17961
# Assay type: cell-based
# Conditions: Iso-Sensitest broth, OD 600 nm over 16 h, 35±2° C., read-out: ATCC 17961 IC90
# Procedure: Antimicrobial Susceptibility Testing: 90% Growth Inhibitory Concentration (IC90) Determination The in vitro antimicrobial activity of the compounds was determined according to the following procedure: The assay used a 10-points Iso-Sensitest broth medium to measure quantitatively the in vitro activity of the compounds against Acinetobacter baumannii ATCC17978 or ATCC17961. Stock compounds in DMSO were serially twofold diluted (e.g. range from 50 to 0.097 μM final concentration) in 384 wells microtiter plates and inoculated with 49 μl the bacterial suspension in Iso-Sensitest medium to have a final cell concentration of ˜5×10^(5) CFU/ml in a final volume/well of 50 ul/well. Microtiter plates were incubated at 35±2° C. Bacterial cell growth was determined with the measurement of optical density at X=600 nm each 20 minutes over a time course of 16 h. Growth inhibition was calculated during the logarithmic growth of the bacterial cells with determination of the concentration inhibiting 50% (IC50) and 90% (IC90) of the growth. Table 2 provides the 90% growth inhibitory concentrations (IC90) in micromoles per liter of the compounds of present invention obtained against the strain Acinetobacter baumannii ATCC17961.
row,IC90 [nM],Structure (SMILES)
1,139,"COc1ccc(-c2cnc(C(=O)Nc3ccc(C(=O)N[C@H]4[C@@H]5CN(C(=O)[C@@H]6C[C@@H](O)CN6)C[C@@H]54)c(Cl)c3)n2C)c(F)c1F [Example B43, N-[3-chloro-4-[[(exo)-3-[(2S,4R)-4-hydroxyprolyl]-3-azabicyclo[3.1.0]hexan-6-yl]carbamoyl]phenyl]-5-(2,3-difluoro-4-methoxy-phenyl)-1-methyl-imidazole-2-carboxamide; 1:1 hydrogen chloride]"
2,155,"COc1ccc(-c2cnc(C(=O)Nc3ccc(C(=O)N[C@H]4[C@@H]5CN(C(=O)N[C@@H]6CNC[C@H]6O)C[C@@H]54)c(Cl)c3)n2C)c(F)c1F [Example B44, (exo)-6-[[2-chloro-4-[[5-(2,3-difluoro-4-methoxy-phenyl)-1-methyl-imidazole-2-carbonyl]amino]benzoyl]amino]-N-[(trans)-4-hydroxypyrrolidin-3-yl]-3-azabicyclo[3.1.0]hexane-3-carboxamide; 1:1 hydrogen chloride]"
